The format of data set [1] is in vivo, healthy female subjects. Also on record: AUC0-t, Central Value, Test / AUC0-t, Central Value, Reference / AUCinf, Central Value, Test / AUCinf, Central Value, Reference: unit not given beside the values. Particulars: for Bioequivalence in the presence and absence of upadacitinib: 90% CIs of Cmax and AUC ratios within 0.8 to 1.25; for Tmax: median (minimum to maximum); for AUC(0-inf): AUCinf; for half-life: t1/2 (terminal half-life), harmonic mean (pseudo-standard deviation).

The subject of the next data set is JAK1. The following applies: cited from earlier work.
In the next data set the test system is other JAK isoforms. Particulars: relative to JAK1; cited from earlier work.
Another data set deals with cytochrome P450 (CYP) 3A. Particulars: coadministration following multiple doses of ketoconazole; cited from earlier work.
Data set [2] is described as follows: Safety assessment during the study. The data set is classed as in vivo, healthy female subjects. Particulars: period 2.
For data set [3] the following is noted: cited from earlier work.
The mark [4] stands for this setting: ethinylestradiol/levonorgestrel 0.03/0.15 mg alone, period 1 day 1, N = 22, mean ± SD.
The mark [5] stands for this setting: ethinylestradiol/levonorgestrel 0.03/0.15 mg with upadacitinib 30 mg QD, period 2, N = 20, mean ± SD.
Setting [6] is: ethinylestradiol/levonorgestrel 0.03/0.15 mg with upadacitinib 30 mg QD, period 2, N = 20.
Where [7] appears, read: period 1, day 1 (oral contraceptive alone), repeated measures analysis.
[8] abbreviates: period 2, day 12 (with upadacitinib 30 mg QD), repeated measures analysis.

Where two headings read alike, the source gives them in different places.

Data on three compounds can be found in publication PMC6587524 (Journal of Clinical Pharmacology, 2018).

For `C#C[C@]1(O)CC[C@H]2[C@@H]3CCC4=CC(=O)CC[C@@H]4[C@H]3CC[C@@]21CC` [Levonorgestrel], the “Bioequivalence in the presence and absence of upadacitinib” value in data set [1] is reported as “bioequivalent”. In data set [1] (setting [4]), this compound showed an AUC(0-t) of 43.0 ± 18.4 ng·h/mL, an AUCinf of 51.7 ± 22.0 ng·h/mL and a Cmax of 3.9 ± 1.4 ng/mL. Also, the Tmax in data set [1] (ethinylestradiol/levonorgestrel 0.03/0.15 mg alone, period 1 day 1, N = 22) was 0.8 (0.5–2.0) h. Further, in data set [1] (setting [5]), the AUC(0-t) was 38.7 ± 12.1 ng·h/mL, the AUCinf was found to be 49.5 ± 20.4 ng·h/mL and the Cmax was determined as 3.7 ± 1.15 ng/mL. Besides, the Tmax in data set [1] (setting [6]) is 0.8 (0.5–2.0) h. Moreover, in data set [1] (setting [7]), the “AUC0-t, Central Value, Reference” value is given as 39.6 and the “AUCinf, Central Value, Reference” value worked out at 47.6. Also, in data set [1] (setting [8]), the “AUC0-t, Central Value, Test” value is listed as 36.3 and the “AUCinf, Central Value, Test” value was 45.5.
Regarding `C#C[C@]1(O)CC[C@H]2[C@@H]3CCc4cc(O)ccc4[C@H]3CC[C@@]21C` [Ethinylestradiol], the “Bioequivalence in the presence and absence of upadacitinib” value in data set [1] is recorded as “bioequivalent”. In addition, the Tmax in data set [1] (setting [6]) is recorded as 1.5 (1.0–3.0) h. In addition, the AUC(0-t) in data set [1] (female, human, plasma, po, AUC0-t, Central Value, Test, period 2, day 12 (with upadacitinib 30 mg QD), repeated measures analysis) worked out at 0.39 ng·h/mL; in data set [1] (female, human, plasma, po, AUC0-t, ethinylestradiol/levonorgestrel 0.03/0.15 mg alone, period 1 day 1, N = 22, mean ± SD), 0.378 ± 0.154 ng·h/mL; in data set [1] (female, human, plasma, po, AUC0-t, ethinylestradiol/levonorgestrel 0.03/0.15 mg with upadacitinib 30 mg QD, period 2, N = 20, mean ± SD), 0.426 ± 0.137 ng·h/mL. Moreover, the AUC(0-inf) in data set [1] (female, human, plasma, po, Central Value, Test, period 2, day 12 (with upadacitinib 30 mg QD), repeated measures analysis) was found to be 0.445 ng·h/mL; in data set [1] (female, human, plasma, po, ethinylestradiol/levonorgestrel 0.03/0.15 mg alone, period 1 day 1, N = 22, mean ± SD), 0.441 ± 0.193 ng·h/mL. The half-life is 7 h in data set [1] (female, human, plasma, po, ethinylestradiol/levonorgestrel 0.03/0.15 mg alone, period 1 day 1, N = 22) and 7.7 h in data set [1] (female, human, plasma, po, ethinylestradiol/levonorgestrel 0.03/0.15 mg with upadacitinib 30 mg QD, period 2, N = 20).
For `CC[C@@H]1CN(C(=O)NCC(F)(F)F)C[C@@H]1c1cnc2cnc3[nH]ccc3n12` [Upadacitinib], in the data set with JAK1, the JAK1 inhibition result was “potently inhibits JAK1”. In addition, in the data set with other JAK isoforms, the “potency against the other JAK isoforms” value is on record as “less potent”. In the data set with cytochrome P450 (CYP) 3A, the “increase in upadacitinib AUC” value is on record as 75% and the “increase in upadacitinib Cmax” value was 70%. Also, the “relation of treatment-emergent adverse events to upadacitinib” value in data set [2] is reported as “not considered to have a reasonable possibility of being related”. Besides, the “effect of upadacitinib on the exposures of ethinylestradiol or levonorgestrel” value in data set [1] (upadacitinib 30 mg QD repeated doses) is “no effect”. The “accumulation upon multiple QD dosing” value in data set [3] (extended-release formulation) is “No significant accumulation”. Moreover, in data set [3] (in vivo), the “administered dose eliminated in urine and feces as unchanged upadacitinib” value is reported as > 60%. Besides, the “time to steady state” value in data set [3] (multiple QD dosing, extended-release formulation) was ≤ 4 days.

By AUC(0-t) is commonly meant the area under the concentration-time curve up to a stated or last time point. Broadly, the Cmax is the maximum level reached in the sampled fluid or tissue. A word on the AUC(0-inf): it is total exposure, with the tail of the curve extrapolated. The term half-life denotes how long it takes for the measured level to halve.
